What was measured:
Type in all cases: in vivo, human
[1] = tested on: central memory T cells; assay: Cultured IFN-γ ELISPOT after 10-day in vitro stimulation of PBMC, phase 1/2 colon cancer trial of OSE-2101; set-up: key to net SFC of vaccine positive CTL responses: —, indicates SFC response did not meet criteria and vaccine response was negative; conditions: for Mean SFC: 10 colon patients
Description: (§1) Clinical study design. Both trials were designed as phase 1/2, open label, multi-center, single dose, multiple administration studies to evaluate the safety and immunogenicity of the OSE-2101 immunotherapy. Patients were treated with 1 ml OSE-2101 every 3 weeks for a total of six doses. Each dose was administered subcutaneously in the same vicinity in the deltoid or upper thigh region, or at a contralateral site if local side-effects were observed. The study duration for each completed patient was 18 weeks. Clinical responses or patient survival were not measured in either phase 1/2 studies.
(§2) Clinical sample processing. Blood or leukapheresis product was obtained from patients at the pre-treatment, the Week 9 and Week 18 time points, 3 weeks after the third and sixth dose of OSE-2101 respectively. Peripheral blood mononuclear cells (PBMC) were isolated from samples within 24 hours of collection using a FICOLL-PAQUE density gradient and cryopreserved in containers designed to ensure optimal freezing (Mr. Frosty, Nalgene). For use, cells were rapidly thawed at 37° C. then transferred to human AB serum-containing medium for work-up.
(§3) Measurement of central T memory cells responses and T effector memory cells. The CTL responses in 16 total patients (10 colon and six NSCLC) were monitored for CTL responses against each epitope and against the wild-type epitope of epitopes analogs. For each patient, the pre-treatment, Week 9 and Week 18 time points were batch-tested in the same experiment to allow pre- versus post-treatment response comparison in the same experiment. Central T memory cells responses were measured using an IFN-γ enzyme-linked immunospot (cultured ELISPOT) assay following in vitro stimulation of PBMC for 10 days with each vaccine epitope. Briefly, PBMC from each time point were stimulated on day 0 with 10 μg/ml of each epitope individually in replicate in 48-well culture plates (2×10^6 PBMC/well). All cultures were fed with rIL-2 (Endogen, Woburn, Mass.; 10 U/ml final concentration) on days 1, 4 and 7. Ten days after initiation of culture, cells were harvested and tested for activity against specific vaccine peptides and corresponding wild-type peptides of vaccine analogs in the T memory ELISPOT assay. Cells were tested in Millipore IP 96-well plates pre-coated with mouse anti-human IFN-γ antibody (Mabtech USA, Cincinnati, Ohio). Five×10^4 cells and 1.25×10^4 cells from each culture were plated in triplicate wells together with 10^5 irradiated autologous PBMC and 10 μg/ml peptide. As a control, CTL were also tested against an irrelevant HLA-A2.1-binding HBV peptide. After 20 hours incubation, T memory ELISPOT plates were developed by performing sequential incubations with biotinylated anti-human IFN-γ antibody (Mabtech USA), Avidin-Peroxidase Complex (APC, Vector Laboratories, Burlingame, Calif.), and 3-amino-9-ethyl carbazole (AEC) substrate (Sigma Aldrich, St. Louis, Mo.). Spot-forming cells (SFC) were enumerated using a computer-assisted image analysis system (Zeiss KS ELISPOT Reader, Carl Zeiss MicroImaging, Thornwood, N.J.). Data is reported as the net SFC per 5×10^4 cells after subtracting spots induced with the irrelevant HBV peptide.

[2] = tested on: central memory T cells; assay: Central memory T cell cultured ELISPOT, phase 2 trial in advanced NSCLC
Description: CTL Immune responses measured though cultured Elispot. The immunogenicity was measured in Phase 2 clinical trial on cryopreserved PBMC from each test sample were thawed in 5% human culture medium (RPMI-1640 medium with 25 mM HEPES, supplemented with 5% human AB serum, 4 mM L-glutamine, 0.5 mM sodium pyruvate, 0.1 mM MEM non-essential amino acids, 100 μg/ml streptomycin, and 100 U/ml penicillin) containing 30 μg/ml DNAase. After centrifugation for 5 minutes at 1200 rpm, the cell pellets were resuspended in 5% human culture medium and washed 2 times. For the central Memory T cell cultured ELISPOT assay, 2×10^6/ml PBMC were placed in replicate wells in a 48-well plates and stimulated for 10 days with 10 μg/ml of each peptide. As a positive control, PBMC were also stimulated with a pool of recall viral peptides. Human rIL2 (10 U/ml) was added to the peptide-stimulated cultures at day 1, day 4 and day 7. After 10 days the stimulated cells were harvested and plated at a concentration of 5×10^4/well. Assay wells also received irradiated autologous PBMC (1×10^5/well) and 10 μg/ml peptide, either the vaccine peptide, irrelevant peptide or positive control peptides. Cells stimulated in vitro with each analog epitope were also tested against the corresponding wild-type epitope.
Data analysis and acceptance criteria. Mean and standard deviation (SD) of spots in replicate wells were calculated in all assays by transferring raw ELISPOT data from each experiment to an Excel-based computer program. Positive vaccine-induced T-cell responses were determined according to the criteria described below.
Acceptance Criteria for peptide-Induced specific T-cell response through central memory T cells: The positive criteria for CTL responses used in the phase 2 trial was identical to the criteria in the phase 1/2 trials which was established prospectively after analyzing the variability of pre-treatment responses in patients against each vaccine epitope and the irrelevant HBV control epitope. A positive peptide-induced CTL/T memory response to a given epitope met all of the following conditions: 1) was greater than 5 SFC above the irrelevant epitope response, 2) was greater than the mean SFC of the irrelevant epitope response, plus 2 SD, and 3) was two-fold greater than the SFC response in the pre-vaccination sample from the same patient, plus 2 SD. The inclusion of “plus two standard deviations” was used to accommodate the assay variability and served to increase the criteria stringency.

[3] = tested on: central memory T cells; assay: Cultured IFN-γ ELISPOT after 10-day in vitro stimulation of PBMC, phase 1/2 NSCLC trial of OSE-2101; set-up: key to net SFC of vaccine positive CTL responses: —, indicates SFC response did not meet criteria and vaccine response was negative; conditions: for Mean SFC / No. Positive Responses: 6 NSCLC patients
Description: as §1, §2, §3

Sequence: KLBPVQLWV [p53.139L2B3 A]
- Mean SFC ([1]; Week 9): 70.5 SFC per 50,000 cells
- Mean SFC ([1]; Week 18): 89.4 SFC per 50,000 cells
- net SFC of vaccine positive CTL responses ([1]; colon patient 551, Week 9): —
- net SFC of vaccine positive CTL responses ([1]; colon patient 551, Week 18): —
- net SFC of vaccine positive CTL responses ([1]; colon patient 601, Week 9): 129.0 SFC per 50,000 cells
- net SFC of vaccine positive CTL responses ([1]; colon patient 601, Week 18): 96.0 SFC per 50,000 cells
- net SFC of vaccine positive CTL responses ([1]; colon patient 602, Week 9): —
- net SFC of vaccine positive CTL responses ([1]; colon patient 602, Week 18): 22.7 SFC per 50,000 cells
- net SFC of vaccine positive CTL responses ([1]; colon patient 603, Week 9): 85.3 SFC per 50,000 cells
- net SFC of vaccine positive CTL responses ([1]; colon patient 603, Week 18): —
- net SFC of vaccine positive CTL responses ([1]; colon patient 604, Week 9): 41.0 SFC per 50,000 cells
- net SFC of vaccine positive CTL responses ([1]; colon patient 604, Week 18): 188.7 SFC per 50,000 cells
- net SFC of vaccine positive CTL responses ([1]; colon patient 605, Week 9): 9.7 SFC per 50,000 cells
- net SFC of vaccine positive CTL responses ([1]; colon patient 605, Week 18): 44.7 SFC per 50,000 cells
- net SFC of vaccine positive CTL responses ([1]; colon patient 606, Week 9): 43.7 SFC per 50,000 cells
- net SFC of vaccine positive CTL responses ([1]; colon patient 606, Week 18): 37.7 SFC per 50,000 cells
- net SFC of vaccine positive CTL responses ([1]; colon patient 607, Week 9): 114.3 SFC per 50,000 cells
- net SFC of vaccine positive CTL responses ([1]; colon patient 607, Week 18): 146.7 SFC per 50,000 cells
- net SFC of vaccine positive CTL responses ([1]; colon patient 608, Week 9): —
- net SFC of vaccine positive CTL responses ([1]; colon patient 608, Week 18): —
- net SFC of vaccine positive CTL responses ([1]; colon patient 609, Week 9): —
- net SFC of vaccine positive CTL responses ([1]; colon patient 609, Week 18): —
- % of patients with positive CTL/central memory T cell response ([2]; phase 2, month 9): 29%
- patients with positive CTL/central memory T cell response / patients tested ([2]; phase 2, month 9): 2/7
- % of patients with positive CTL/central memory T cell response ([2]; phase 2, month 12): 50%
- patients with positive CTL/central memory T cell response / patients tested ([2]; phase 2, month 12): 2/4
- % of patients with positive CTL/central memory T cell response ([2]; phase 2, week 9): 55%
- patients with positive CTL/central memory T cell response / patients tested ([2]; phase 2, week 9): 6/11
- % of patients with positive CTL/central memory T cell response ([2]; phase 2, week 18): 36%
- patients with positive CTL/central memory T cell response / patients tested ([2]; phase 2, week 18): 4/11
- % of patients with positive CTL/central memory T cell response ([2]; phase 2, week 30): 50%
- patients with positive CTL/central memory T cell response / patients tested ([2]; phase 2, week 30): 3/6
- Mean SFC ([3]; Week 9): 25.9 SFC per 50,000 cells
- No. Positive Responses ([3]; Week 9): 3
- Mean SFC ([3]; Week 18): 62.0 SFC per 50,000 cells
- No. Positive Responses ([3]; Week 18): 4
- net SFC of vaccine positive CTL responses ([3]; NSCLC patient 201, Week 9): —
- net SFC of vaccine positive CTL responses ([3]; NSCLC patient 201, Week 18): —
- net SFC of vaccine positive CTL responses ([3]; NSCLC patient 502, Week 9): —
- net SFC of vaccine positive CTL responses ([3]; NSCLC patient 502, Week 18): —
- net SFC of vaccine positive CTL responses ([3]; NSCLC patient 504, Week 9): 18.7 SFC per 50,000 cells
- net SFC of vaccine positive CTL responses ([3]; NSCLC patient 504, Week 18): 90.3 SFC per 50,000 cells
- net SFC of vaccine positive CTL responses ([3]; NSCLC patient 505, Week 9): —
- net SFC of vaccine positive CTL responses ([3]; NSCLC patient 505, Week 18): 20.3 SFC per 50,000 cells
- net SFC of vaccine positive CTL responses ([3]; NSCLC patient 532, Week 9): 53.0 SFC per 50,000 cells
- net SFC of vaccine positive CTL responses ([3]; NSCLC patient 532, Week 18): 117.3 SFC per 50,000 cells
- net SFC of vaccine positive CTL responses ([3]; NSCLC patient 651, Week 9): 6.0 SFC per 50,000 cells
- net SFC of vaccine positive CTL responses ([3]; NSCLC patient 651, Week 18): 20.0 SFC per 50,000 cells

From patent US11191820B2, “Method for inducing early T memory response with short peptides anti-tumor vaccine” (OSE IMMUNOTHERAPEUTICS, priority 2015, dated 2021)
